# From patent publication EP0326637A1, “New 2-anilinophenylacetic acid derivative” (Mikasa Seiyaku Co., Ltd., priority 1988, dated 1989)
# Structures can show the parent of a compound that is named as a salt. Where two headings read alike, the source gives them in different places.
# Experiments:
# [1] = tested on: female mice of ICR strain; assay: Analgesic and anti-capillary permeability effects according to Wittle's method (acetic acid stretching, PSB exudation); assay type: in vivo; details: oral 25 mg/kg, 1% acetic acid i.p., compared with control Group 3 (P<0.01), no significant difference between Groups 1 and 2; for inhibitory activities of the stretching: stretchings counted for 20 minutes; for inhibitory activities of the exudation of the colorant from the peritoneal cavity: 4% Pontamine Sky Blue i.v.
# Excerpt: (b) Analgesic and anti-capillary permeability effects according to Wittle's method:
# Three groups of female mice of ICR strain weighing 22-28 g were used, each group consisting of 10 mice; one group (Group 1) was used for the administration of the compound of this invention, another group (Group 2) for the administration of diclofenac sodium salt and the other group (Group 3) as control. […] Immediately after the intraperitoneal injection, the number of stretchings of the treated mice were counted and recorded for 20 minutes. After this observation, the mice were immediately sacrificed by dislocation of cervical vertebrae and subjected to ventrotomy. The peritoneal cavity of each mouse was washed with 5 ml of distilled water to exudate PSB in the peritoneal cavity, and the amount of the colorant exudated was measured.
# [2] = in vivo; details: mouse, in vivo, po, LD₅₀, oral administration, Litchfield-Wilcoxon's method, dead mice during one week
# Procedure: (§1) (a) Acute oral toxicity in mice:
# (§2) Groups of male and female mice of ICR strain weighing 25-35 g were used for the test, each group consisting of 6 mice. […] LD₅₀ values of the compound of this invention were calculated for each concentration according to the Litchfield-Wilcoxon's method from the number of dead mice during one week.
# [3] = tested on: mice of ICR strain; assay: in vivo; details: oral, male and female mice
# Procedure: as §1, §2
# [4] = tested on: carrageenin-induced hind paw edema; assay: Inhibitory effect on carrageenin-induced hind paw edema in rats; assay type: in vivo, rats of Wistar strain; details: male Wistar rats, 8 per group, oral; reference drugs at LD₅₀ amount, compound of this invention equimolar to diclofenac sodium salt; compared with Control group (P<0.01); no significant difference between the test compounds
# Excerpt: (a) Inhibitory effect on carrageenin-induced hind paw edema in rats:
# 40 Male rats of Wistar strain weighing 100-130 g were divided into the following 5 groups each consisting of 8 rats: 1. Control group, 2. Group for the administration of the compound of this invention, 3. Group for the administration of diclofenac Na, 4. Group for the administration of flurubiprofen and 5. Group for the administration of indomethacin. Prior to the administration of the test compounds, plantar injections 1% carrageenin solution were made to each rat to induce hind paw edema. To each rat of the Groups 3, 4 and 5, the LD₅₀ amount of the relevant test compound was orally administered in molar amounts. The compound of the present invention was administered in an equimolar amount to the diclofenac sodium salt.
# [5] = Solubility (description of the substance); assay type: physicochemical; details: organic solvents
# [6] = tested on: male rats of Wistar strain; assay type: in vivo
# Procedure: (b) Gastric ulcerogenic action:
# Three groups of male rats of Wistar strain weighing 300-340 g were used, each group consisting of 7 rats; one group (Group 1) was used for control, another group (Group 2) for the administration of the compound of this invention and the other group (Group 3) for the administration of diclofenac sodium salt. After 24 hour fasting prior to the test, the compound of this invention and the diclofenac sodium salt were orally administered each in a dose of 20 mg/kg to the rats of the relevant groups. Six hours after the administration, the rats were sacrificed by decaptation and their stomachs were immediately removed. A 5% formaline solution (10 ml) was injected through the cardia into the stomach cavity and the stomach was fixed overnight in a 10% formaline solution. Each fixed stomach was cut along the greater curvature, and the inside of the stomach was investigated by the naked eye to check whether ulcers and erosions occurred or not. An ulcerogenic and erosion index was 0.71±0.42 in Group 1, 1.13±0.40 in Group 2 and 17.57±4.28 in Group 3. The number of rats having ulcers or erosions was 3/7 (42.9%) in Group 1, 4/7 (57.1%) in Group 2 and 7/7 (100%) in Group 3.
SMILES,inhibitory activities of the stretching [1],inhibitory activities of the exudation of the colorant from the peritoneal cavity [1],LD50 at 168 h ([2]; female mice),LD50 at 168 h ([2]; male mice),LD₅₀ values relative to those of diclofenac sodium salt [3],swelling of the edema [4],solubility [5],"number of rats having ulcers or erosions ([6]; rat, in vivo, po, 20 mg/kg)","ulcerogenic and erosion index ([6]; rat, in vivo, po, 20 mg/kg)","ulcerogenic and erosion index ([6]; male Wistar rats, 7 per group, 24 hour fasting, oral 20 mg/kg, six hours after administration)"
"Cc1oc(=O)oc1COC(=O)Cc1ccccc1Nc1c(Cl)cccc1Cl [compound of this invention, (5-methyl-2-oxo-1,3-dioxolen-4-yl)methyl 2-(2,6-dichloroanilino)phenylacetate]",significant difference,significant difference,516 mg/kg,460 mg/kg,approximately 3 times,significantly inhibited,soluble in organic solvents such as alcohols,4/7 (57.1%),1.13±0.40,–
"O=C(O)Cc1ccccc1Nc1c(Cl)cccc1Cl [diclofenac sodium salt, reference compound]",significant difference,significant difference,–,–,–,significantly inhibited,–,–,–,17.57±4.28
CC(C(=O)O)c1ccc(-c2ccccc2)c(F)c1 (stereo not drawn) [flurubiprofen],–,–,–,–,–,significantly inhibited,–,–,–,–
COc1ccc2c(c1)c(CC(=O)O)c(C)n2C(=O)c1ccc(Cl)cc1 [indomethacin],–,–,–,–,–,significantly inhibited,–,–,–,–
